Like-named read-outs stand apart in the source and are kept apart here.
Legend:
in vitro [1] = settings: human, microsomes
in vitro [2] = settings: mouse
Caco-2 cell monolayer = assay: Bidirectional Caco-2 cell monolayer permeability; settings: based on the Caco-2 permeability study
[3] = Bidirectional Caco-2 cell monolayer permeability; settings: human, Caco-2, pH 6.5
CD-1 mice = settings: mouse, in vivo
GL261-luc2 = assay: MTT cell viability assay in GL261-luc2; format: cell-based; settings: Mus musculus, 72 h, read-out: MTT assay IC50

Molecule `O=C(O)c1cc2ccc(N(Cc3ccccc3)Cc3ccccc3)cc2oc1=O` [4a, 7-(dibenzylamino)-2-oxo-2H-chromene-3-carboxylic acid] has a microsomal CLint at 0.1 μM (in vitro [1]) of under 116 µL/min/mg, a microsomal CLint at 0.1 μM (in vitro [2]; microsomes) of under 116 µL/min/mg and a half-life at 0.1 μM (in vitro [2]; microsomes, Half-life Trial 1) of 1.51 h. For the same molecule, the half-life at 0.1 μM (in vitro [2]; microsomes, Half-life Trial 2) was 1.23 h, the Absorption (Caco-2 cell monolayer) was ~ 30% and the Papp A→B at 10 µM [3] was 32 ×10⁻⁶ cm/s. The Papp B→A at 10 µM [3] was 6.4 ×10⁻⁶ cm/s, the “Body weights compared to the control group” value (CD-1 mice; ip, 20 mg/kg) was “no significant difference in body weights” and the “Visible toxic effects or mortality” value (CD-1 mice; ip, 20 mg/kg) was “did not show any visible toxic effects or mortality”. For the same molecule, the “Body weights compared to the control group” value (CD-1 mice; po, 100 mg/kg) was “no significant difference in body weights”, the “Visible toxic effects or mortality” value (CD-1 mice; po, 100 mg/kg) was “did not show any visible toxic effects or mortality” and the IC50 (GL261-luc2) was over 250 µM.

For `O=C(O)c1cc2ccc(N3CCCC3)cc2oc1=O` [4b], the IC50 (GL261-luc2) was over 250 µM.

`CCCN(CCC)c1ccc2cc(C(=O)O)c(=O)oc2c1` [4c] gave an IC50 (GL261-luc2) of over 250 µM.

In the case of `C=CCN(CC=C)c1ccc2cc(C(=O)O)c(=O)oc2c1` [4d], the IC50 (GL261-luc2) is reported as over 250 µM.

Work on `C#CCN(CC#C)c1ccc2cc(C(=O)O)c(=O)oc2c1` [4e] yielded an IC50 (GL261-luc2) of over 250 µM.

In the case of `CC(C)NCC(O)COc1cccc2ccccc12` (centres unmarked) [Propranolol], the half-life at 0.1 μM (in vitro [2]; liver microsomes, Half-life Trial 2, mouse liver microsomes, 0.1 μM) is reported as 0.158 h.

— article PMC5531278 (Bioorganic & medicinal chemistry letters, 2016)
